Here are results for 67 compounds from PubChem BioAssay AID624344 (Sanford-Burnham Center for Chemical Genomics, 2012).

One assay concerns Cytotoxicity. Kind of assay: NFkB reporter suppression in cystic fibrosis bronchial cells – cell-based, uHTS hits, panel, cytotoxicity readout, dose response (AID 624344). To be noted: CF bronchial epithelial cells, mean of runs.
Experiment in assay [1]: as above
As to conditions: CF bronchial epithelial cells, PAF-induced NFkB reporter inhibition; with PAF, mean of runs.

SMILES strings stand for the structures. Activity calls are given as the source filed them. How the calls were made is not given here.

By IC50 is commonly meant the concentration that inhibits the measured activity by half. As for `COc1ccc(-n2cc(-c3ccccc3)c3c(N4CC(C)OC(C)C4)ncnc32)cc1` (stereo unspecified), the results for the IC50 (with Cytotoxicity; in assay [1]) were 3.56 µM and 4.95 µM, respectively. Turning to `CCOC(=O)[C@@H]1[C@H]2COc3ccc(Br)cc3[C@H]2N2C(=O)N(c3ccc(C)cc3)C(=O)[C@]12C`, the IC50 (in the assay on Cytotoxicity; in assay [1]) was > 79 µM (inactive) in each case. In the case of `COc1ccc(-c2nc(N3CCOCC3)nc3n[nH]c(N)c23)cc1`, the IC50 in the assay with Cytotoxicity is 9.47 µM; in assay [1], 6.92 µM. The corresponding values for `COc1cc(NC(=O)c2cc3ccccc3cc2OC)ccc1NC(=O)c1cccs1` are 11 µM and 5.79 µM. Taken in the same sequence, the figures for `CCOC(=O)c1[nH]c2c(c1C)C(=O)CC(c1ccco1)C2` (stereo unspecified) were > 79 µM (inactive) and “inactive”. Taken in the same sequence, the figures for `CN(C)c1ccc(C(C(=O)NC2CCCCC2)N(Cc2ccco2)C(=O)c2snc(C(N)=O)c2N)cc1` (stereo unspecified) were 9.1 µM and 4.04 µM. Turning to `CCOC(=O)C1=C(CC)Nc2ccccc2N=C1NC(=O)c1oc2ccccc2c1C`, the 50% inhibitory concentration (IC50) is 6.1 µM in the assay with Cytotoxicity and 4.43 µM in assay [1]. With `Nc1ncnc(NCc2ccc(F)cc2)c1[N+](=O)[O-]`, the IC50 in the assay with Cytotoxicity is > 79 µM (inactive); in assay [1], 3.33 µM.

On to `C=C1C(=O)O[C@@]23[C@H]1CC[C@@H](C)[C@@H]2CC[C@@]1(C)O[C@@H]31`, for which the IC50 in the assay with Cytotoxicity is 44.9 µM; in assay [1], 3.76 µM.

For the compound `CCOc1ccccc1N1CCN(C(=O)c2cc(-c3cc(OC)ccc3OC)nc3ccccc23)CC1`, the IC50 was 12 µM in the assay on Cytotoxicity and 4.12 µM in assay [1]. For the compound `CCC1(O)C(=O)OCc2c1cc1n(c2=O)Cc2cc3cc(O)ccc3nc2-1` (stereo unspecified), the IC50 is 1.09 µM with Cytotoxicity and 0.284 µM in assay [1].

For the compound `COc1ccc2[nH]c(=O)c3c(c2c1)OC(C)(C)C=C3`, the IC50 in the assay with Cytotoxicity was 19.8 µM; in assay [1], 1.67 µM. Taken in the same sequence, the figures for `COc1cc(C2c3cc4c(cc3C3OC(=O)C2C3CO)OCO4)cc(OC)c1OC` (stereo unspecified) were > 79 µM (inactive) and “inactive”. `COc1cc(/C=N/NC(=O)Nc2cccc3nsnc23)cc(OC)c1OC`: the IC50 with Cytotoxicity is 14.7 µM; in assay [1], 2.53 µM. The corresponding values for `C=C(C)COc1ccc(-c2[nH]ncc2-c2ccc(OC)cc2)c(O)c1` are 24 µM and 5.07 µM.

In the case of `Cc1ccccc1C(=O)N1CCN(c2ccc(NC(=O)c3cccc(OC(C)C)c3)cc2)CC1`, the figures for the IC50 (with Cytotoxicity; in assay [1]) were > 79 µM (inactive) and 6.7 µM, respectively.

Regarding `COc1ccc(OC)c(-c2nnc3n2N=C(c2ccc(OC)c(OC4CCOC4)c2)CS3)c1` (stereo unspecified), the IC50 in the assay on Cytotoxicity was > 79 µM (inactive); in assay [1] it was 1.71 µM.

In the case of `CCCCCCc1cc2cc(S(=O)(=O)c3ccc(F)cc3)c(=O)oc2cc1O`, the concentration for half-maximal inhibition (IC50) in the assay with Cytotoxicity is 4.76 µM; in assay [1], 4.48 µM. The corresponding values for `C[C@]12CCC(O)CC1CCC1C2CC[C@]2(C)C(c3cc(C(F)(F)F)n[nH]3)CCC12` (stereo partly specified) are 5.25 µM and 1.92 µM. On to `c1cc(-c2nnc3sc(C4CCCCC4)nn23)ccn1`, for which the IC50 is > 79 µM (inactive) with Cytotoxicity and 3.45 µM in assay [1]. Regarding `Nc1cc2c(cc1Br)-c1ccccc1C2=NO`, the results for the IC50 (in the assay on Cytotoxicity; in assay [1]) were 60.6 µM (inactive) and 11.9 µM, respectively.

Take `C[C@H](O)[C@@H]1CN2CCc3c([nH]c4ccc(-c5ccc6c(c5)OCO6)cc34)[C@@H]2C[C@@H]1N(C)C(=O)Nc1ccc(F)cc1`: the results for the IC50 (in the assay on Cytotoxicity; in assay [1]) were 29 µM and 9.85 µM, respectively. The corresponding values for `COc1ccc(C(=O)Nc2cccc(NC(=O)c3ccc(OC)c(OC)c3)n2)cc1OC` are 1.49 µM and 3.69 µM.

For `CCN1CCN(Cc2ccc(NC(=O)c3ccc(C)c(NC(=O)c4ccc5n[nH]nc5c4)c3)cc2C(F)(F)F)CC1`, the IC50 is 33.3 µM with Cytotoxicity and 2.58 µM in assay [1].

Take `OCCN1CCN(c2ncnc3ccc(Br)cc23)CC1`: the figures for the IC50 (in the assay on Cytotoxicity; in assay [1]) were 55.7 µM (inactive) and 2.44 µM, respectively. Taken in the same sequence, the figures for `O=C(Nc1ccc(C(=O)N2CCOCC2)cc1)Nc1cccc(C(F)(F)F)c1` were > 79 µM (inactive) and 1.69 µM. As for `COc1ccc([C@]2(C(C)C)ON(c3ccccc3C(F)(F)F)C2=O)cc1`, the results for the IC50 (in the assay on Cytotoxicity; in assay [1]) were > 79 µM (inactive) and 11.1 µM, respectively. Take `CN(c1cccc(Cl)c1)S(=O)(=O)c1cccc(C(=O)Nc2nc3ccccc3[nH]2)c1`: the results for the IC50 (in the assay with Cytotoxicity; in assay [1]) were 12.2 µM and 6.19 µM, respectively. On to `Cc1cc(N2C(=O)C(O)=C(C(=O)c3ccc(C)o3)C2c2cccc(Oc3ccccc3)c2)no1` (stereo unspecified), for which the IC50 with Cytotoxicity was 41.7 µM; in assay [1], 10.6 µM. Taken in the same sequence, the figures for `COc1ccc(CN(CCC(c2ccc(F)cc2)C2CCOC(C)(C)C2)C(=O)c2ccco2)cc1` (stereo unspecified) were 8.96 µM and 6.57 µM. Taken in the same sequence, the figures for `CCNC(=O)C1(C)CCCN(Cc2ccc(-c3ccccc3)o2)C1` (stereo unspecified) were > 79 µM (inactive) and 9 µM. In the case of `CCCCCCc1cc2cc(C(=O)OCC)c(=O)oc2cc1O`, the results for the IC50 (with Cytotoxicity; in assay [1]) were 20.2 µM and 7.22 µM, respectively.

For the compound `COc1cc2c(Cc3ccccc3)cncc2cc1O`, the half-maximal inhibitory concentration (IC50) in the assay on Cytotoxicity is 36.8 µM; in assay [1] it was 6.42 µM.

For the compound `COC(=O)c1c(C)n(-c2ccc(OC)cc2)c2ccc(O)cc12`, the IC50 in the assay with Cytotoxicity was 42.2 µM; in assay [1], 2.37 µM. The corresponding values for `CCC1(O)CC2CN(CCc3c([nH]c4ccccc34)C(C(=O)OC)(c3cc4c(cc3OC)N(C=O)C3C(O)(C(=O)OC)C(OC(C)=O)C5(CC)C=CCN6CCC43C65)C2)C1` (stereo unspecified) are 63.1 µM (inactive) and 3.67 µM.

As for `CC(=O)c1ccc(Nc2ncnc3ccc(Br)cc23)cc1`, the IC50 with Cytotoxicity is 37 µM; in assay [1], 2.18 µM. In the case of `CCc1nccn1C(=O)c1cnn2c(C(F)F)cc(-c3ccc(C)cc3)nc12`, the IC50 was 6.64 µM in the assay with Cytotoxicity and 3.86 µM in assay [1].

Consider `COc1ccc(CNC(=O)C(c2ccc(O)cc2)N(Cc2ccco2)C(=O)c2snc(C(N)=O)c2N)cc1` (stereo unspecified), for which the IC50 in the assay with Cytotoxicity is 5 µM; in assay [1], 4.58 µM. `O=C(CCl)N(Cc1cc(=O)[nH]c2ccccc12)c1ccccc1`: the IC50 was 2.98 µM with Cytotoxicity and 1.48 µM in assay [1]. Taken in the same sequence, the figures for `CCc1cc2c(Sc3nc4ccccc4s3)ncnc2s1` were 1.74 µM and 1.03 µM.

With `COc1ccc2[nH]c3c(c2c1)CCNC3=O`, the IC50 in the assay on Cytotoxicity was > 79 µM (inactive); in assay [1], 1.37 µM. For `CCC(Oc1ccccc1)C(=O)Nc1ncc([N+](=O)[O-])s1` (stereo unspecified), the values for the IC50 (in the assay on Cytotoxicity; in assay [1]) were 31 µM and 9.05 µM, respectively.

`CN(C)c1ccc(C(C(=O)NCc2ccccc2)N(Cc2ccco2)C(=O)c2snc(C(N)=O)c2N)cc1` (stereo unspecified): the IC50 in the assay with Cytotoxicity was 6.97 µM; in assay [1], 3.08 µM. Taken in the same sequence, the figures for `CCN1CCN(Cc2ccc(NC(=O)c3ccc(C)c(NC(=O)c4csc(-c5ccncc5)n4)c3)cc2C(F)(F)F)CC1` were 19.9 µM and 6.08 µM. Take `NC(=O)c1sc2nc3c(c(-c4ccccc4)c2c1N)CCC3`: the IC50 was 60.1 µM (inactive) in the assay on Cytotoxicity and 1.17 µM in assay [1].

On to `CCC1=C(CC2NCCc3ccccc32)CC2c3cc(OC)c(OC)cc3CCN2C1` (stereo unspecified), for which the IC50 was 30 µM with Cytotoxicity and 4.34 µM in assay [1]. Regarding `Cc1cccc(Nc2ncnc3ccc(Br)cc23)c1`, the results for the IC50 (with Cytotoxicity; in assay [1]) were 13.1 µM and 3.93 µM, respectively.

As for `COc1ccc(-n2nnnc2C(c2cccc(OC)c2OC)N2CCC(n3c(=O)[nH]c4ccccc43)CC2)cc1` (stereo unspecified), the results for the IC50 (in the assay with Cytotoxicity; in assay [1]) were 9.39 µM and 6.65 µM, respectively.

As for `NS(=O)(=O)c1ccc(CCNC(=O)c2ccc(C#CC3(O)CCCCC3)cc2)cc1`, the IC50 in the assay with Cytotoxicity was 5.01 µM; in assay [1], 3.47 µM. The corresponding values for `Oc1ccc(CCNc2ncnc3ccc(Cl)cc23)cc1` are 40.6 µM and 0.831 µM. The corresponding values for `COc1ccc(-c2nc(NC(=O)c3ccc(OCC(=O)Nc4ccc(F)cc4)c(OC)c3)sc2C)cc1` are 16.6 µM and 4.72 µM. Regarding `O=C(Nc1ccncc1)c1c(Cl)cccc1Cl`, the IC50 is 38.9 µM in the assay with Cytotoxicity and 5.03 µM in assay [1]. `CCC(CO)Oc1cc(NCc2ccc(Cl)cc2Cl)c2ncn(C(C)C)c2c1` (stereo unspecified): in the assay with Cytotoxicity, the IC50 was 11 µM. Besides, in assay [1], the IC50 result was “inactive”.

For the compound `NC(=S)N1OC[C@@H]2COc3ccc4ccccc4c3[C@@H]21`, the IC50 is 31.2 µM in the assay with Cytotoxicity and 4.75 µM in assay [1]. The corresponding values for `CC(=O)Oc1ccc(N(C(C)=O)S(=O)(=O)c2cccs2)c2ccccc12` are 11.7 µM and 6.45 µM. Consider `O=C(Nc1cccc(Cl)c1)Nc1csc([N+](=O)[O-])c1`, for which the IC50 was 0.788 µM in the assay on Cytotoxicity and 4.12 µM in assay [1]. For `CC(=O)Nc1ccc(S(=O)(=O)N2c3ccccc3C(C)=CC2(C)C)cc1`, the IC50 in the assay with Cytotoxicity was 44.5 µM. For the same compound, the IC50 entry in assay [1] is “inactive”.

Consider `CCn1c(Oc2ccccc2F)nc2c1c(=O)n(C)c(=O)n2C`, for which the results for the IC50 (with Cytotoxicity; in assay [1]) were > 79 µM (inactive) and 3.57 µM, respectively. Consider `COc1ccc(COC(=O)C2=C(C)NC(=O)NC2c2ccc(F)cc2)cc1` (stereo unspecified), for which the values for the IC50 (with Cytotoxicity; in assay [1]) were 39.8 µM and 8.9 µM, respectively. As for `CN(C)CCCN(C(=O)CCOc1ccccc1)c1nc2ccc(F)cc2s1`, the IC50 in the assay with Cytotoxicity is 12.7 µM; in assay [1] it was 2.53 µM.

For `C#CCN(C[C@@H]1[C@@H](OC(=O)NCc2ccco2)[C@@H](OC(=O)NCc2ccco2)Cn2c(=O)ccc(=O)n21)S(=O)(=O)c1ccc(C)cc1`, the IC50 is 18.3 µM in the assay on Cytotoxicity and 3.11 µM in assay [1]. Regarding `COc1ccc2c(c1)[nH]c1c(C)nccc12`, the figures for the IC50 (in the assay with Cytotoxicity; in assay [1]) were > 79 µM (inactive) and 3.77 µM, respectively.

Regarding `CC(=O)c1c(C)n(-c2ccccc2)c2ccc(O)cc12`, the figures for the IC50 (in the assay on Cytotoxicity; in assay [1]) were > 79 µM (inactive) and 5.58 µM, respectively.

`CC(C)(CO)CNc1ccn2nccc2n1`: the IC50 was 76.7 µM (inactive) in the assay on Cytotoxicity and 5.29 µM in assay [1]. Regarding `O=S1(=O)CC=C(CSC(=S)NC2CCS(=O)(=O)C2)C1` (stereo unspecified), the IC50 in assay [1] was 3.05 µM. On the same count and under the same terms, then `O=C(N/N=C/c1ccccc1Cl)c1[nH]c2ccc(Br)cc2c1-c1ccccc1`, with 10.7 µM; and `O=C1C=C(NC2=CC3OC(c4ccccc4)OCC3OC2=O)CCC1` (stereo unspecified), with 3.74 µM.
